Assay [1] has as its target DNA topoisomerase 2-alpha (Homo sapiens) (UniProt P11388). Description: Inhibition of human topoisomerase-2 alpha assessed as inhibition of relaxation of supercoiled pBR322 plasmid DNA at 100 uM measured after 1 hr by ethidium bromide staining based agarose gel electrophoresis relative to control.
For assay [2], the target named is T1, DNA topoisomerase 1 (Homo sapiens) (UniProt P11387).
T1 sequence (whole entry): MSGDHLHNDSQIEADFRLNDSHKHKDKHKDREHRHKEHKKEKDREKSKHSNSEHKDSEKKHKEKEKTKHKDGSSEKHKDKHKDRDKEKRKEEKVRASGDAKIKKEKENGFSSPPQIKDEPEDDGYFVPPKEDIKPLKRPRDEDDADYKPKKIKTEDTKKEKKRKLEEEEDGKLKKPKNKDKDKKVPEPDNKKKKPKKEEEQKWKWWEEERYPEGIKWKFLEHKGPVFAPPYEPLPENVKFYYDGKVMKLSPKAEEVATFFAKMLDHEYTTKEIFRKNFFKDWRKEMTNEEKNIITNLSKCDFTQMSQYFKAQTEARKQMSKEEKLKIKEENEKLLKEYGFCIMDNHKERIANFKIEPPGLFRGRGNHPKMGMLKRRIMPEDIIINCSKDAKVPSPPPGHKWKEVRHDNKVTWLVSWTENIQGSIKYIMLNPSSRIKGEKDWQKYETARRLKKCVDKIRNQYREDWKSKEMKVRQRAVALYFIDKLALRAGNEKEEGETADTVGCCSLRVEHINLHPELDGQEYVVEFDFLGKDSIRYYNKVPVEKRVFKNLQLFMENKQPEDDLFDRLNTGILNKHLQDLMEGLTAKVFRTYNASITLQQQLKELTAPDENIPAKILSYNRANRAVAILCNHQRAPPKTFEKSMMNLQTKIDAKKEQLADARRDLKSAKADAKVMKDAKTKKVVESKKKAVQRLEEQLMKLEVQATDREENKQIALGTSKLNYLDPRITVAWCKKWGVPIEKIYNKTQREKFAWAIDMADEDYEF
Description: Inhibition of human topoisomerase-1 assessed as inhibition of relaxation of supercoiled pBR322 plasmid DNA at 100 uM measured after 1 hr by ethidium bromide staining based agarose gel electrophoresis relative to control.

Assay [3] has as its target T1, DNA topoisomerase 1 (Homo sapiens). Description: Inhibition of human topoisomerase-1 assessed as inhibition of relaxation of supercoiled pBR322 plasmid DNA at 20 uM measured after 1 hr by ethidium bromide staining based agarose gel electrophoresis relative to control.

Sequence of DNA topoisomerase 2-alpha (Homo sapiens) (P11388 whole entry): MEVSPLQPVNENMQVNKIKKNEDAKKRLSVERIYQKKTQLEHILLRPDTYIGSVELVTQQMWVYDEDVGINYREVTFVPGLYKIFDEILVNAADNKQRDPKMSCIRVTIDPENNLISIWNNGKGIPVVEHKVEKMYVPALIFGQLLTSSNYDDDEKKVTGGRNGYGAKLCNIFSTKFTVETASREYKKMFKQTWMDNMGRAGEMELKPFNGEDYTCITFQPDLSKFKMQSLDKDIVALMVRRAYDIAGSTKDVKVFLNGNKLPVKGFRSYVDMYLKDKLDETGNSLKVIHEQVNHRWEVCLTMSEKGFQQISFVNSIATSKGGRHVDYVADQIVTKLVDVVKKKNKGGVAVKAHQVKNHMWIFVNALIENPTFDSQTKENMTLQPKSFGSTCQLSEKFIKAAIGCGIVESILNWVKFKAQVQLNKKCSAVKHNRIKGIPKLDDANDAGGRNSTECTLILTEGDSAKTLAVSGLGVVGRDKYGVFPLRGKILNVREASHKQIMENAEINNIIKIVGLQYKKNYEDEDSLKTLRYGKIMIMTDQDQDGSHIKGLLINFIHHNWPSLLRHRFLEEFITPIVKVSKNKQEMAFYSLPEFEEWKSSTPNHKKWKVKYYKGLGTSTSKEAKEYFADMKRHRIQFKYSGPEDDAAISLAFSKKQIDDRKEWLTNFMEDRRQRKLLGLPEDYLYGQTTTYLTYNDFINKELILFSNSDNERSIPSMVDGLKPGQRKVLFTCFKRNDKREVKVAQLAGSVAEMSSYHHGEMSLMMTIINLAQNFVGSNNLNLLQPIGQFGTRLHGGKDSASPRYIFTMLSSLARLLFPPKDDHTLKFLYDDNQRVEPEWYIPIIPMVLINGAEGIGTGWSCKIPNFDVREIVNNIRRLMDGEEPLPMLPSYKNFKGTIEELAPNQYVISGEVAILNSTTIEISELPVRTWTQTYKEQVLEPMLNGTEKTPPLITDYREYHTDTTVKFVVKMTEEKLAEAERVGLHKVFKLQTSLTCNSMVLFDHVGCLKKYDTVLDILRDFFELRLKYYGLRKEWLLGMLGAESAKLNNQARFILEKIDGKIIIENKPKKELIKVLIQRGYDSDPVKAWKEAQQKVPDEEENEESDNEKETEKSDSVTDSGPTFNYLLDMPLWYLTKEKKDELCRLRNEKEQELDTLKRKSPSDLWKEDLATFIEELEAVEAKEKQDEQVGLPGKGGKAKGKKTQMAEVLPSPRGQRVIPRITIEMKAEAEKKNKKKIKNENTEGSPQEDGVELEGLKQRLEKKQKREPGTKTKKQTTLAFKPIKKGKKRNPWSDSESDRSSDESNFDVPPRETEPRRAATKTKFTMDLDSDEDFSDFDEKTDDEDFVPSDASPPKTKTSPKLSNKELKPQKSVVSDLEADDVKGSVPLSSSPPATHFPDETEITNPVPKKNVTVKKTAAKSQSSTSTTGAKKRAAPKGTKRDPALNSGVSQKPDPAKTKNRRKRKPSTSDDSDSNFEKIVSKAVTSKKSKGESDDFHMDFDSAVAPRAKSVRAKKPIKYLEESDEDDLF

In the case of `CCOc1ccc2c(c1)Oc1cc(OC(=O)c3ccccc3)ccc1C21c2ccccc2C(=O)N1/N=C/c1ccc(Cl)cc1` (configuration not stated), the inhibition – broadly, the change of the read-out against control, counted positive when it falls – in assay [1] is 7%; in assay [2] it was 9.4%.
Consider `CCOc1ccc2c(c1)Oc1cc(OC(=O)c3ccccc3[N+](=O)[O-])ccc1C21c2ccccc2C(=O)N1/N=C/c1ccccc1OC` (configuration not stated), for which the values for the inhibition in assay [1], in assay [2] and in assay [3] were 9%, 79.3% and 34.4%, respectively.
As to `CCOc1ccc2c(c1)Oc1cc(OC(=O)c3ccccc3[N+](=O)[O-])ccc1C21c2ccccc2C(=O)N1/N=C/c1ccc(Cl)cc1` (configuration not stated), the figures for the inhibition in assay [1] and in assay [2] were 10.8% and 12.9%, respectively.
As for `CCOc1ccc2c(c1)Oc1cc(OC(=O)c3ccccc3)ccc1C21c2ccccc2C(=O)N1/N=C/c1ccc(Cl)cc1Cl` (configuration not stated), the inhibition turned out to be 25.3% in assay [1], 99.9% in assay [2] and 2.5% in assay [3].
For `CCOc1ccc2c(c1)Oc1cc(OC(=O)c3ccccc3)ccc1C21c2ccccc2C(=O)N1/N=C/c1ccc(OC)c(OC(=O)c2ccccc2)c1` (configuration not stated), the inhibition in assay [1] was 2.7%; in assay [2], 89.4%; in assay [3], 72%.
Regarding `CCOc1ccc2c(c1)Oc1cc(OC(=O)c3ccccc3Cl)ccc1C21c2ccccc2C(=O)N1/N=C/c1ccc(OC)cc1` (configuration not stated), the values for the inhibition in assay [1] and in assay [2] were 5.6% and 3.3%, respectively.
On the same counts, the results for `CCOc1ccc2c(c1)Oc1cc(OC(=O)c3ccccc3[N+](=O)[O-])ccc1C21c2ccccc2C(=O)N1/N=C/c1cccc(OC(=O)c2ccccc2[N+](=O)[O-])c1` (configuration not stated) are 6.6% and 0%.
For `CCOc1ccc2c(c1)Oc1cc(OC(=O)c3ccccc3)ccc1C21c2ccccc2C(=O)N1/N=C/c1ccccc1[N+](=O)[O-]` (configuration not stated), the figures for the inhibition in assay [1], in assay [2] and in assay [3] were 6.1%, 55.4% and 0%, respectively.
For `CCOc1ccc2c(c1)Oc1cc(OC(=O)c3ccccc3OC)ccc1C21c2ccccc2C(=O)N1/N=C/c1ccc(Cl)cc1` (configuration not stated), the inhibition is 6.5% in assay [1] and 4.2% in assay [2].
On the same counts, the results for `CCOc1ccc2c(c1)Oc1cc(OC(=O)c3ccccc3Cl)ccc1C21c2ccccc2C(=O)N1/N=C/c1cccc(OC(=O)c2ccccc2Cl)c1` (configuration not stated) are 7% and 0%.
On the same counts, the results for `CCOc1ccc2c(c1)Oc1cc(OC(=O)c3ccccc3[N+](=O)[O-])ccc1C21c2ccccc2C(=O)N1/N=C/c1ccccc1[N+](=O)[O-]` (configuration not stated) are 7.5% and 16.9%.
On to `CCOc1ccc2c(c1)Oc1cc(OC(=O)c3ccccc3)ccc1C21c2ccccc2C(=O)N1/N=C/c1ccccc1OC` (configuration not stated), for which the inhibition in assay [1] came to 6.9%; in assay [2], 81.3%; in assay [3] it was 48.1%.
On the same counts, the results for `CCOc1ccc2c(c1)Oc1cc(OC(=O)c3ccccc3)ccc1C21c2ccccc2C(=O)N1/N=C/c1ccc(OC(=O)c2ccccc2)cc1` (configuration not stated) are 7.9%, 75.3% and 9.2%.
Take `CCOc1ccc2c(c1)Oc1cc(OC(=O)c3ccccc3OC)ccc1C21c2ccccc2C(=O)N1/N=C/c1ccccc1[N+](=O)[O-]` (configuration not stated): the inhibition turned out to be 6.2% in assay [1] and 19% in assay [2].
For `CCOc1ccc2c(c1)Oc1cc(OC(=O)c3ccccc3OC)ccc1C21c2ccccc2C(=O)N1/N=C/c1cccc(OC(=O)c2ccccc2OC)c1` (configuration not stated), the figures for the inhibition in assay [1] and in assay [2] were 2.8% and 0%, respectively.
Consider `CCOc1ccc2c(c1)Oc1cc(OC(=O)c3ccccc3Cl)ccc1C21c2ccccc2C(=O)N1/N=C/c1ccc(Cl)cc1Cl` (configuration not stated), for which the inhibition in assay [1] is 8.5%; in assay [2] it was 14.4%.
On the same counts, the results for `CCOc1ccc2c(c1)Oc1cc(OC(=O)c3ccccc3Cl)ccc1C21c2ccccc2C(=O)N1/N=C/c1ccccc1OC(=O)c1ccccc1Cl` (configuration not stated) are 11.1% and 0%.
On the same counts, the results for `CCOc1ccc2c(c1)Oc1cc(OC(=O)c3ccccc3[N+](=O)[O-])ccc1C21c2ccccc2C(=O)N1/N=C/c1ccc(OC(=O)c2ccccc2[N+](=O)[O-])cc1` (configuration not stated) are 13.2% and 22.7%.

Values taken from ChEMBL document CHEMBL3877252, “Fluorescein hydrazones: A series of novel non-intercalative topoisomerase IIα catalytic inhibitors induce G1 arrest and apoptosis in breast and colon cancer cells” (Eur J Med Chem, 2017).
